# Data: patent US6875760B2 (Novo Nordisk A/S, priority 1999, dated 2005)
# Target: T1, human glucagon receptor (Homo sapiens, UniProt P47871)
# T1 construct: expressed in transfected cells; host or cells: BHK (baby hamster kidney) cells
# Experiment: Glucagon Binding Assay (III)
# Conditions: BHK cell membranes, WGA SPA beads, 125I-glucagon; read-out: Glu Bd Assay (III) IC50
# Experimental: BHK (baby hamster kidney cell line) cells were transfected with the human glucagon receptor and a membrane preparation of the cells was prepared.
# All steps in the membrane preparation were kept on ice or performed at 4° C. BHK cells were harvested and centrifuged. […] The pellet was resuspended in homogenisation buffer, homogenised 2×10 sec (Polytron) and additional homogenisation buffer was added. […] (Polytron).
# The glucagon binding assay was carried out in opti plates (Polystyrene Microplates, Packard). […] Finally 50 μL WGA beads containing 1 mg beads were transferred to the well. The assay was incubated for 4 hours on a shaker and then settled for 8-48 hours. The opti plates were counted in a Topcounter. Non-specific binding was determined with 500 nM of glucagon.
# T1 sequence (P47871 26-477): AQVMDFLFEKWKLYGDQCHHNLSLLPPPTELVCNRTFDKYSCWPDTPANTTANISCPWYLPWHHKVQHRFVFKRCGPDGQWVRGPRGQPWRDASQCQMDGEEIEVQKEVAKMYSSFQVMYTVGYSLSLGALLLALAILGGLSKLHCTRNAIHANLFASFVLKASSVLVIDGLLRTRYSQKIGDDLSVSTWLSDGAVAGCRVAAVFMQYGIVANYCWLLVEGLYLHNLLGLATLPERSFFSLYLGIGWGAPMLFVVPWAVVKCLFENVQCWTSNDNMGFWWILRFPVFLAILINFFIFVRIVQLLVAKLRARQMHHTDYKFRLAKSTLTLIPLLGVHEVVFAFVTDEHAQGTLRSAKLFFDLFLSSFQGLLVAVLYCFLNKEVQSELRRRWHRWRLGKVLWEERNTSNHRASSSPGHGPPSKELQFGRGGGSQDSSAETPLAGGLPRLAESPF
row,IC50 [nM],Compound
1,91,"CC(C)N1C(=O)c2ccc(NC(=O)N(Cc3ccc(C(=O)NCCC(=O)O)cc3)C3CCC(C(C)(C)C)CC3)cc2C1=O (centres unmarked) [Example 632, 3-{4-[1-(4-tert-Butylcyclohexyl)-3-(N′-isopropylphthalimid-4-yl)ureidomethyl]benzoylamino}propionic acid]"
2,26,"O=C(Nc1nn[nH]n1)c1ccc(CN(C(=O)Nc2cccc([N+](=O)[O-])c2)c2ccc(C3CCCCC3)cc2)cc1 [Example 286, 4-[1-(4-Cyclohexylphenyl)-3-(3-nitrophenyl)ureidomethyl]-N-(2H-tetrazol-5-yl)benzamide]"
3,217,"O=C(Nc1nn[nH]n1)c1ccc(CN(C(=O)/C=C/c2ccccc2Br)c2ccc(C3CCCCC3)cc2)cc1 [Example 501, 4-{[[3-(2-Bromophenyl)acryloyl]-(4-cyclohexylphenyl)amino]methyl}-N-(2H-tetrazol-5-yl)benzamide]"
4,46,"CC(C)(C)c1ccc(N(Cc2ccc(C(=O)Nc3nn[nH]n3)cc2)C(=O)Nc2ccc(OC(F)(F)F)c(S(C)(=O)=O)c2)cc1 [Example 312, 4-[1-(4-tert-Butylphenyl)-3-(3-methylsulfonyl-4-trifluoromethoxyphenyl)ureidomethyl]-N-(2H-tetrazol-5-yl)benzamide]"
5,195,"CC(C)(C)c1ccc(N(Cc2ccc(C(=O)Nc3nn[nH]n3)cc2)C(=O)Nc2cccc(S(C)(=O)=O)c2)cc1 [Example 449, 4-[1-(4-tert-Butylphenyl)-3-(3-methylsulfonylphenyl)ureidomethyl]-N-(2H-tetrazol-5-yl)benzamide]"
6,571,"O=C(O)CCNC(=O)c1ccc(CN(C(=O)Nc2ccc(OC(F)(F)F)cc2)C2CCC(=C3CC3)CC2)cc1 (centres unmarked) [Example 248, 3-{4-[1-(4-Cyclopropylidenecyclohexyl)-3-(4-trifluoromethoxyphenyl)ureidomethyl]benzoylamino}propionic acid]"
7,201,"CC(C)(C)C1CCC(N(Cc2ccc(C(=O)Nc3nn[nH]n3)cc2)C(=O)Cc2cccc(OC(F)(F)F)c2)CC1 (centres unmarked) [Example 543, 4-({(4-tert-Butylcyclohexyl)-[2-(3-trifluoromethoxyphenyl)acetyl]amino}methyl)-N-(2H-tetrazol-5-yl)benzamide]"
8,773,"O=C(Nc1nn[nH]n1)c1ccc(CN(C(=O)Nc2ccc3c(c2)S(=O)(=O)CC3)c2ccc(C3CCCCC3)cc2)cc1 [Example 258, 4-[1-(4-Cyclohexylphenyl)-3-(1,1-dioxo-2,3-dihydro-1H-1-benzo[b]thiophen-6-yl)ureidomethyl]-N-(2H-tetrazol-5-yl)benzamide]"
9,197,"O=C(Nc1nn[nH]n1)c1ccc(CN(C(=O)Nc2cccc(SC3CCCC3)c2)c2ccc(C3CCCCC3)cc2)cc1 [Example 300, 4-[1-(4-Cyclohexylphenyl)-3-(3-cyclopentylsulfanylphenyl)ureidomethyl]-N-(2H-tetrazol-5-yl)benzamide]"
10,112,"C[C@@H](NC(=O)N(Cc1ccc(C(=O)Nc2nn[nH]n2)cc1)c1ccc(C2=CCCCC2)cc1)c1ccc(Br)cc1 [Example 355, (R)-4-[3-[1-(4-Bromophenyl)ethyl]-1-(cyclohex-1-enylphenyl)ureidomethyl]-N-(2H-tetrazol-5-yl)benzamide]"
11,227,"CCCCC(CC)CN(Cc1ccc(C(=O)NCCC(=O)O)cc1)C(=O)Nc1ccc(C)cc1 (centres unmarked) [Example 39, 3-{4-[1-(2-Ethylhexyl)-3-p-tolylureidomethyl]benzoylamino}propionic acid]"
12,13,O=C(Nc1nn[nH]n1)c1ccc(CN(C(=O)Nc2ccc(OC(F)(F)F)c(CO)c2)c2ccc(C3CCCCC3)cc2)cc1 [Example 568]
13,235,"O=C(O)CCNC(=O)c1ccc(CN(CC(c2ccccc2)c2ccccc2)C(=O)Cc2ccc(OC(F)(F)F)cc2)cc1 [Example 504, 3-[4-({(2,2-Diphenylethyl)-[2-(4-trifluoromethoxyphenyl)acetyl]amino}methyl)benzoylamino]propionic acid]"
14,12,"N#Cc1ccc(NC(=O)N(Cc2ccc(C(=O)Nc3nn[nH]n3)cc2)c2ccc(C3=CCCCC3)cc2)cc1C(F)(F)F [Example 599, 4-[3-(4-Cyano-3-trifluoromethylphenyl)-1-(4-cyclohex-1-enylphenyl)ureidomethyl]-N-(2H-tetrazol-5-yl)benzamide]"
15,855,"O=C(Nc1nn[nH]n1)c1ccc(CN(CC(c2ccccc2)c2ccccc2)C(=O)c2cc(-c3ccc(Cl)cc3)cs2)cc1 [Example 566, 4-(4-Chlorophenyl)thiophene-2-carboxylic acid (2,2-diphenyl-ethyl)-[4-(2H-tetrazol-5-ylcarbamoyl)benzyl]amide]"
16,841,"CC(C)(C)c1ccc(N(Cc2ccc(C(=O)Nc3nn[nH]n3)cc2)C(=O)Nc2cccc(C(=O)Oc3c(F)c(F)c(F)c(F)c3F)c2)cc1 [Example 457, 3-{3-(4-tert-Butylphenyl)-3-[4-(2H-tetrazol-5-ylcarbamoyl)benzyl]ureido}benzoic acid pentafluorophenyl ester]"
17,94,"CC(C)(C)C1CCC(N(Cc2ccc(C(=O)Nc3nn[nH]n3)cc2)C(=O)/C=C/c2c(Cl)cccc2Cl)CC1 (centres unmarked) [Example 503, 4-({(4-tert-Butylcyclohexyl)-[3-(2,6-dichlorophenyl)acryloyl]amino}methyl)-N-(2H-tetrazol-5-yl)benzamide]"
18,540,"CC(C)(C)C1CCC(N(Cc2ccc(C(=O)Nc3nn[nH]n3)cc2)C(=O)CCC(=O)c2ccc(Cl)cc2)CC1 (centres unmarked) [Example 540, 4-({(4-tert-Butylcyclohexyl)-[4-(4-chlorophenyl)-4-oxobutyryl]amino}methyl)-N-(2H-tetrazol-5-yl)benzamide]"
19,266,"CC(C)(C)C1CCC(N(Cc2ccc(C(=O)NCCC(=O)O)cc2)C(=O)Nc2ccccc2-c2ccccc2)CC1 (centres unmarked) [Example 28, 3-{4-[3-Biphenyl-2-yl-1-(4-tert-butylcyclohexyl)ureidomethyl]benzoylamino}propionic acid]"
20,7,"O=C(O)CCNC(=O)c1ccc(CN(C(=O)Nc2ccc3c(c2)C(=O)N(CC2CC2)C3=O)c2ccc(C3=CCCCC3)cc2)cc1 [Example 645, 3-{4-[1-(4-Cyclohex-1-enylphenyl)-3-(N′-[cyclopropylmethyl]phthalimid-4-yl)ureidomethyl]benzoylamino}propionic acid]"
21,27,"CCSc1cccc(NC(=O)N(Cc2ccc(C(=O)Nc3nn[nH]n3)cc2)c2ccc(C3CCCCC3)cc2)c1 [Example 289, 4-[1-(4-Cyclohexylphenyl)-3-(3-ethylsulfanylphenyl)ureidomethyl]-N-(2H-tetrazol-5-yl)benzamide]"
22,277,"CC(C)(C)C1CCC(N(Cc2ccc(C(=O)Nc3nn[nH]n3)cc2)C(=O)NCCc2ccccc2)CC1 (centres unmarked) [Example 324, 4-[1-(4-tert-Butylcyclohexyl)-3-phenethylureidomethyl]-N-(2H-tetrazol-5-yl)benzamide]"
23,931,"O=C(O)CCNC(=O)c1ccc(CN(C(=O)Nc2ccc(OC(F)(F)F)cc2)C(=O)Nc2ccc(OC(F)(F)F)cc2)cc1 [Example 383, 3-{4-[1,5-Bis(4-trifluoromethoxyphenyl)-3-biuretmethyl]benzoylamino}propionic acid]"
24,9,"O=C(Nc1nn[nH]n1)c1ccc(CN(C(=O)Nc2ccc(F)c(C(F)(F)F)c2)c2ccc(C3CCCCC3)cc2)cc1 [Example 600, 4-[1-(4-Cyclohexylphenyl)-3-(4-fluoro-3-trifluoromethylihenyl)ureidomethyl]-N-(2H-tetrazol-5-yl)benzamide]"
25,15,"CN(c1ccccc1)S(=O)(=O)c1cccc(NC(=O)N(Cc2ccc(C(=O)Nc3nn[nH]n3)cc2)c2ccc(C3CCCCC3)cc2)c1 [Example 266, 4-{1-(4-Cyclohexylphenyl)-3-[3-(methylphenylsulfamoyl)phenyl]ureidomethyl}-N-(2H-tetrazol-5-yl)benzamide]"
26,61,"CC(C)(C)C1CCC(N(Cc2ccc(C(=O)NCCC(=O)O)cc2)C(=O)Nc2ccc(Cl)c(C(F)(F)F)c2)CC1 (centres unmarked) [Example 74, 3-{4-[1-(4-tert-Butylcyclohexyl)-3-(4-chloro-3-trifluoromethylphenyl)ureidomethyl]benzoylamino}propionic acid]"
27,104,O=C(Nc1nn[nH]n1)c1ccc(CN(C(=O)Nc2nc3cc4c(cc3s2)OC(F)(F)C(F)(F)O4)c2ccc(C3CCCCC3)cc2)cc1 [Example 617]
28,184,"CCCc1ccc(N(Cc2ccc(C(=O)NCCC(=O)O)cc2)C(=O)Nc2ccc(OC(F)(F)F)cc2)cc1 [Example 439, 3-{4-[1-(4-Propylphenyl)-3-(4-trifluoromethoxyphenyl)ureidomethyl]benzoylamino}propionic acid]"
29,144,"CC(C)Oc1ccc(C(=O)N(Cc2ccc(C(=O)Nc3nn[nH]n3)cc2)C2CCC(C(C)(C)C)CC2)cc1 (centres unmarked) [Example 513, 4-{[(4-tert-Butylcyclohexyl)-(4-isopropoxybenzoyl)amino]methyl}-N-(2H-tetrazol-5-yl)benzamide]"
30,2680,"O=C(O)c1ccc2nc(NC(=O)N(Cc3ccc(C(=O)Nc4nn[nH]n4)cc3)c3ccc(C4CCCCC4)cc3)sc2c1 [Example 364, 2-{3-(4-Cyclohexylphenyl)-3-[4-(2H-tetrazol-5-ylcarbamoyl)benzyl]ureido}benzothiazole-6-carboxylic acid]"

# Same assay, conditions: Glu Bd Assay (III) IC50 (nM), BHK cell membranes, WGA SPA beads, 125I-glucagon
row,Compound,IC50 [nM]
1,"CC(C)(C)[C@H]1CC[C@H](N(Cc2ccc(C(=O)NCCC(=O)O)cc2)C(=O)Nc2ccccc2)CC1 [Example 243, 3-{4-[1-(trans-4-tert-Butylcyclohexyl)-3-phenylureidomethyl]benzoylamino}propionic acid]",1090
2,"CC(C)(C)[C@H]1CC[C@H](N(Cc2ccc(C(=O)NCC(=O)NO)cc2)C(=O)Nc2ccc(OC(F)(F)F)cc2)CC1 [Example 377, 4-[1-(trans-4-tert-Butylcyclohexyl)-3-(4-trifluoromethoxyphenyl)ureidomethyl]-N-hydroxycarbamomethyl-benzamide]",2960
